Values joined by “and” are separate entries in the source; they are usually repeats but may differ in a detail not shown here. Equal entries are not always repeated.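 Method: 48-hour compound exposure of cells in 96-well plates, five concentrations, linear interpolation of endpoints. GI50 = concentration required for 50% inhibition of growth. TGI: concentration producing complete growth inhibition.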
How the values were obtained:
Assay in all cases: NCI anticancer screen, dose series, 48 h
NCI/ADR-RES ovarian = system: NCI/ADR-RES ovarian
SK-MEL-28 melanoma = system: SK-MEL-28 melanoma
PC-3 prostate = system: PC-3 prostate
SF-295 CNS = system: SF-295 CNS
HS 578T breast = system: HS 578T breast
T-47D breast = system: T-47D breast
M14 melanoma = system: M14 melanoma
SF-268 CNS = system: SF-268 CNS
SNB-19 CNS = system: SNB-19 CNS
DU-145 prostate = system: DU-145 prostate

Row | Compound | GI50 (NCI/ADR-RES ovarian) | TGI (NCI/ADR-RES ovarian) | GI50 (SK-MEL-28 melanoma) | TGI (SK-MEL-28 melanoma) | GI50 (PC-3 prostate) | TGI (PC-3 prostate) | GI50 (SF-295 CNS) | TGI (SF-295 CNS) | GI50 (HS 578T breast) | TGI (HS 578T breast) | GI50 (T-47D breast) | TGI (T-47D breast) | GI50 (M14 melanoma) | TGI (M14 melanoma) | GI50 (SF-268 CNS) | TGI (SF-268 CNS) | GI50 (SNB-19 CNS) | TGI (SNB-19 CNS) | GI50 (DU-145 prostate) | TGI (DU-145 prostate)
1 | Cc1cc(-c2nc3ccc(O)cc3s2)ccc1N | 91.1 µM | > 100 µM | 64.9 µM | > 100 µM | 50.2 µM | > 100 µM | 31.5 µM | > 100 µM | 95.5 µM | > 100 µM | 22.6 µM | > 100 µM | 33.1 µM | > 100 µM | 35.6 µM | > 100 µM | 46 µM | > 100 µM | 34.1 µM | > 100 µM
2 | C#CC[C@H](c1nc2cc(Cl)ccc2c(=O)n1Nc1ccccc1)N(CCCN)C(=O)c1cccc(Cl)c1F | 14.2 µM | 30 µM | 0.765 µM | 2.22 µM | 0.196 µM | 3.16 µM | 0.353 µM | 1.48 µM | 0.162 µM | 1.19 µM | 0.484 µM | 1.98 µM | 0.3 µM | 1.63 µM | 0.214 µM | 2.61 µM | 0.52 µM | 7.85 µM | 0.215 µM | 0.75 µM
3 | Cn1c2ccccc2c2nnc(N/N=C/c3ccccn3)nc21 | 0.336 µM | 8.89 µM | 0.494 µM | 26.6 µM | 1.44 µM | > 100 µM | 0.37 µM | > 23.9 µM | 2.06 µM | 82.9 µM | 0.392 µM | 10.8 µM | 0.285 µM | – | 0.343 µM | – | 0.412 µM | > 100 µM | 0.377 µM | > 27.3 µM
4 | COc1ccc(C2=C(c3cn(C)c4ccccc34)C(=O)NC2=O)cc1OC | 7.99 µM | > 25 µM | 16.8 µM | > 25 µM | 7.29 µM | > 25 µM | 10.4 µM | > 25 µM | 3.85 µM | > 20.6 µM | 7.21 µM | > 25 µM | 6.83 µM | > 25 µM | 8.85 µM | > 25 µM | > 25 µM | > 25 µM | > 19.4 µM | > 25 µM
5 | Cc1ccc2c(=O)[nH]sc2c1 | – | 55.8 µM | – | 38.4 µM | – | 29.1 µM | – | > 100 µM | – | 40 µM | – | 41.8 µM | – | 23.9 µM | – | 39 µM | – | > 100 µM | – | > 100 µM
6 | CC1(C)N=C(N)N=C(N)N1c1cccc(CCCCc2ccc(S(=O)(=O)F)cc2Cl)c1 | 76 µM | > 100 µM | 8.62 µM | 22 µM | 0.581 µM | > 100 µM | 2.44 µM | > 38.8 µM | 43.2 µM | > 100 µM | 14 µM | 34.5 µM | 7.55 µM | 28.1 µM | 1.96 µM | 17.4 µM | 1.64 µM | 20.6 µM | 4.06 µM | > 59.8 µM
7 | c1cncc(CNc2ccccc2-c2nnc(Nc3ccc4c(c3)OCCO4)o2)c1 | 0.0557 µM | > 100 µM | 0.145 µM | > 100 µM | 0.128 µM | > 100 µM | 0.0936 µM | > 100 µM | 0.232 µM | > 100 µM | 3.57 µM | 60.2 µM | 0.0704 µM | > 100 µM | 0.646 µM | > 100 µM | 0.345 µM | > 100 µM | 0.244 µM | 1.54 µM
8 | Cc1ccc(C(=O)N/N=C/c2cccc(Oc3ccccc3)c2)cn1 | 4.43 µM | > 71.4 µM | 27.3 µM | > 100 µM | 7.75 µM | > 100 µM | 3.36 µM | > 36.5 µM | 6.74 µM | > 100 µM | 6.3 µM | > 74.3 µM | 6.08 µM | > 100 µM | 34.5 µM | > 100 µM | 10.3 µM | > 100 µM | 18.7 µM | > 100 µM
9 | CCN(CC)CCCC(C)Nc1cnc(C(=O)Nc2cc(F)cc3cccnc23)cn1 (stereo not drawn) | 7.27 µM and 2.6 µM | 21.6 µM and 11.2 µM | 1.84 µM and 1.22 µM | 3.53 µM and 2.5 µM | 3.55 µM and 0.614 µM | 15.3 µM and 2.24 µM | 12.7 µM and 1.81 µM | 26.4 µM and 3.33 µM | 3.97 µM and 2.15 µM | 21.1 µM and 6.62 µM | 0.759 µM and 0.505 µM | 20.2 µM and 5.18 µM | 2.04 µM and 0.994 µM | 4.38 µM and 2.58 µM | 5.32 µM and 1.56 µM | 20.9 µM and 3.25 µM | 10.5 µM and 1.73 µM | 22.8 µM and 3.14 µM | 10.5 µM and 1.48 µM | 23.1 µM and 2.84 µM
10 | CO/N=C1/NC(=O)/C(=C/c2ccc3ncccc3c2)S1 | > 25 µM | > 25 µM | 19.5 µM | > 25 µM | 11.7 µM | > 25 µM | 19.9 µM | > 25 µM | 4.06 µM | 17.5 µM | 4.46 µM | > 20.2 µM | 9.85 µM | > 25 µM | > 25 µM | > 25 µM | 11.6 µM | > 25 µM | 12.3 µM | > 25 µM
11 | CCS(=O)(=O)c1ccc(OC)c(Nc2nccc(N(C)c3ccc4c(C)[nH]nc4c3)n2)c1 | 6.32 µM | > 19.4 µM | 6.8 µM | > 25 µM | 5.46 µM | 22.1 µM | 4.17 µM | 10.4 µM | 2.69 µM | 14.4 µM | 4.77 µM | 21.9 µM | 8.46 µM | > 21.8 µM | 4.74 µM | > 17.6 µM | 9.74 µM | > 25 µM | 8.45 µM | > 25 µM
12 | Cc1ccc(NS(=O)(=O)c2cc(C)ccc2C)cc1 | 1.38 µM | 8.95 µM | 10.7 µM | 37.3 µM | 11.4 µM | 66.5 µM | 2.62 µM | 19.8 µM | 10.9 µM | 77.7 µM | 6.09 µM | > 100 µM | 2.43 µM | 11 µM | 7 µM | 35.2 µM | 4.36 µM | > 100 µM | 6.17 µM | 28.1 µM
13 | COc1cc2c(OC)c(c1)CCCC1=CC(=O)C=C(CCC2)C1=O | – | > 65.7 µM | – | > 100 µM | – | > 100 µM | – | > 100 µM | – | > 100 µM | – | 43.5 µM | – | > 64.5 µM | – | > 100 µM | – | > 100 µM | – | > 100 µM
14 | O=C(Nc1ccc2oc(=O)c(C(=O)O)cc2c1)Oc1ccccc1 | – | > 100 µM | – | > 100 µM | – | > 100 µM | – | > 100 µM | – | > 100 µM | – | > 100 µM | – | > 100 µM | – | > 100 µM | – | > 100 µM | – | > 100 µM
